Measured values published in ChEMBL document CHEMBL1909046, “DrugMatrix in vitro pharmacology data”.

Key:
[1] = target: Aldo-keto reductase family 1 member B1 (Rattus norvegicus, UniProt P07943); test: biochemical; assay type: tissue-based, Lens of camera-type eye;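 further: inhibition of aldose reductase enzyme activity, measured with DL-glyceraldehyde as the substrate; in other assays of this panel Not Active means under 50% inhibition at 10 µM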
[2] = DRUGMATRIX: Calcium Channel Type L, Dihydropyridine radioligand binding (ligand: [3H] Nitrendipine); assay type: cell membranes, Rattus norvegicus, Wistar, Cerebral cortex, Membrane; settings: Not Active = under 50% inhibition at 10 µM
[3] = target: Vascular endothelial growth factor receptor 1 (Homo sapiens, UniProt P17948); test: biochemical; assay type: cell-based, HUVEC; settings: huvec; further: in other assays of this panel Not Active means under 50% inhibition at 10 µM
Sequence of Vascular endothelial growth factor receptor 1 (P17948 whole entry): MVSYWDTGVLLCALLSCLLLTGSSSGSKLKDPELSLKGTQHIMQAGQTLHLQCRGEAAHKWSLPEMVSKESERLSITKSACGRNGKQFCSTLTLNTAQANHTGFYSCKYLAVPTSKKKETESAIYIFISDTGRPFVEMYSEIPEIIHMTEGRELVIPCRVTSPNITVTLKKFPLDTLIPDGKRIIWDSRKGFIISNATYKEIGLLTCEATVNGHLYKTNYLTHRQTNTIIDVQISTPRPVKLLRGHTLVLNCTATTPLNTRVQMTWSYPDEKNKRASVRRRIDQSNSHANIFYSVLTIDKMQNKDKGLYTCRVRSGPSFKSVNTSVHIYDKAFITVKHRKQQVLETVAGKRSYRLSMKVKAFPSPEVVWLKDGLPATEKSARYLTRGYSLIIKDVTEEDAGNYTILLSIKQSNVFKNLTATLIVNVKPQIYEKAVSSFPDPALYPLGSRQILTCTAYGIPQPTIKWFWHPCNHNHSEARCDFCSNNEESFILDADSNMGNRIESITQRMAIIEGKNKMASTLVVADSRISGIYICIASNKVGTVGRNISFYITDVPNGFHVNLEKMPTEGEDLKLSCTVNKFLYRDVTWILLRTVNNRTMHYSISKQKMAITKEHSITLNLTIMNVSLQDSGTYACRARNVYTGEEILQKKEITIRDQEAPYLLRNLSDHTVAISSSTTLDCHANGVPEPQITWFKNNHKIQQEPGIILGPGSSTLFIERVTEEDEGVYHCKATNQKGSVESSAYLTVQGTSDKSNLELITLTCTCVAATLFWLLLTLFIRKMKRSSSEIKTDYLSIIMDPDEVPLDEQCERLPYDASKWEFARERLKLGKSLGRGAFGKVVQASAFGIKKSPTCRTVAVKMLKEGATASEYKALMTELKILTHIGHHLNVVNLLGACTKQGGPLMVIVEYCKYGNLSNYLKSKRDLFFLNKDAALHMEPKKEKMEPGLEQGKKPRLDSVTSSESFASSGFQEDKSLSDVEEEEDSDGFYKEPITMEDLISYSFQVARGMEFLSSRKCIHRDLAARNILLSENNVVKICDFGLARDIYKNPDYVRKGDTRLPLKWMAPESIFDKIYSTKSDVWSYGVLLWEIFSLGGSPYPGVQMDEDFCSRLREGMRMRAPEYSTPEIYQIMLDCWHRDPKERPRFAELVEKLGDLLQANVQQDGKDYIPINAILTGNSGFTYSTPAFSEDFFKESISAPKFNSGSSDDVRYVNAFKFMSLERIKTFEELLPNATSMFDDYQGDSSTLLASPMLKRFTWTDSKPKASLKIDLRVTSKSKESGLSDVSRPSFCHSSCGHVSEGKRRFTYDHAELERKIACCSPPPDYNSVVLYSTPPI

[4] = target: D(1A) dopamine receptor (Homo sapiens, UniProt P21728); test: DRUGMATRIX: Dopamine D1 radioligand binding (ligand: [3H] SCH-23390); assay type: cell membranes, CHO, Membrane; settings: cho; Not Active = under 50% inhibition at 10 µM
Sequence of D(1A) dopamine receptor (P21728 whole entry): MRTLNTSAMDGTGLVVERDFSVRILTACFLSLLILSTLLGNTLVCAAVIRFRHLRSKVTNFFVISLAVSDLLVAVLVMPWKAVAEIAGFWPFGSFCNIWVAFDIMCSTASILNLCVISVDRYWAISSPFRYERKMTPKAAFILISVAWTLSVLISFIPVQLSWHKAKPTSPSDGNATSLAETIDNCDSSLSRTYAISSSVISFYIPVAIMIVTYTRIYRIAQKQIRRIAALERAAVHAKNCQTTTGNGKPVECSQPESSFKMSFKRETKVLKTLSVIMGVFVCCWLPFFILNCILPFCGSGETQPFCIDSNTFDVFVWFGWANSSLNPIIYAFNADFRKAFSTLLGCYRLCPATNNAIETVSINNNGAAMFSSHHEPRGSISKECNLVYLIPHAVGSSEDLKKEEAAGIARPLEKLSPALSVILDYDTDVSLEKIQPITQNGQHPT

[5] = target: T1, Cysteinyl leukotriene receptor 1 (Homo sapiens, UniProt Q9Y271); assay type: cell membranes, Membrane; settings: cho-k1; further: in other assays of this panel Not Active means under 50% inhibition at 10 µM
T1 sequence (Q9Y271 whole entry): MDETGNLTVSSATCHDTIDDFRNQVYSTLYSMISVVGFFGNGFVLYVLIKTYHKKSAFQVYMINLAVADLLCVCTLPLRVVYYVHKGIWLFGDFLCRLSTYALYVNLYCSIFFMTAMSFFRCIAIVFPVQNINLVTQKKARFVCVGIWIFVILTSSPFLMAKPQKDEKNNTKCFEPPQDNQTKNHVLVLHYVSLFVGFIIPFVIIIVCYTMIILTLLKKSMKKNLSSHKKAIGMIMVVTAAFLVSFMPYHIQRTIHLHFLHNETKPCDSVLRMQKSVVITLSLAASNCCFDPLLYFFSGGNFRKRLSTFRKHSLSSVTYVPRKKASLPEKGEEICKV

[6] = target: T2, Interstitial collagenase (Homo sapiens, UniProt P03956); assay type: tissue-based, Rheumatoid synovial fibroblasts;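 further: MMP-1 enzyme inhibition assay using a peptide substrate; in other assays of this panel Not Active means under 50% inhibition at 10 µM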
T2 sequence (P03956 whole entry): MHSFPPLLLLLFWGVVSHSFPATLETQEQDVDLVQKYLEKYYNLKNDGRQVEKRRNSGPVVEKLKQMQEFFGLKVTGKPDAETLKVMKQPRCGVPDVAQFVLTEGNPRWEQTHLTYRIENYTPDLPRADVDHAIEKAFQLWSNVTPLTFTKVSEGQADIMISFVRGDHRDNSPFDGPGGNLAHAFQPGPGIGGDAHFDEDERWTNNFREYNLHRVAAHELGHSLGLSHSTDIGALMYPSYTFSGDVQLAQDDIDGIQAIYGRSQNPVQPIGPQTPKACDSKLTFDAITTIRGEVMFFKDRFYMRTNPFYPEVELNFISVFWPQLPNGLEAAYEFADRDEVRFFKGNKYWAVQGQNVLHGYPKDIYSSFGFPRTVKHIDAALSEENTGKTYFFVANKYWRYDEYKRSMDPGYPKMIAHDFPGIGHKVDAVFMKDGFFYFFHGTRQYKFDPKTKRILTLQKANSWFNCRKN

Row | SMILES | IC50 [1] | IC50 [2] | Ki [2] | IC50 [3] | IC50 [4] | IC50 [5] | IC50 [6] | IC50 ([1]; read-out: IC50) | IC50 ([2]; read-out: IC50) | Ki ([2]; read-out: Ki)
1 | COc1ccccc1OCC(O)COC(N)=O (stereo not given) [METHOCARBAMOL] | Not Active | Not Active | Not Active | Not Active | Not Active | Not Active | Not Active | – | – | –
2 | CO[C@@]1(NC(=O)CSCC#N)C(=O)N2C(C(=O)O)=C(CSc3nnnn3C)CS[C@@H]21 [CEFMETAZOLE] | Not Active | Not Active | Not Active | Not Active | Not Active | Not Active | Not Active | – | – | –
3 | C=C(CC)C(=O)c1ccc(OCC(=O)O)c(Cl)c1Cl [ETHACRYNIC ACID] | – | Not Active | Not Active | Not Active | Not Active | Not Active | Not Active | 1.15 µM | – | –
4 | Oc1ccccc1O [CATECHOL] | Not Active | Not Active | Not Active | Not Active | Not Active | Not Active | Not Active | – | – | –
5 | CC(C)(CO)C(O)C(=O)NCCCO (stereo not given) [PANTHENOL] | Not Active | Not Active | Not Active | Not Active | Not Active | Not Active | Not Active | – | – | –
6 | NC(=O)N1c2ccccc2C=Cc2ccccc21 [CARBAMAZEPINE] | Not Active | Not Active | Not Active | Not Active | Not Active | Not Active | Not Active | – | – | –
7 | CN(Cc1cnc2nc(N)nc(N)c2n1)c1ccc(C(=O)N[C@@H](CCC(=O)O)C(=O)O)cc1 [METHOTREXATE] | Not Active | Not Active | Not Active | Not Active | Not Active | Not Active | Not Active | – | – | –
8 | O=P1(N(CCCl)CCCl)NCCCO1 (stereo not given) [CYCLOPHOSPHAMIDE ANHYDROUS] | Not Active | Not Active | Not Active | Not Active | Not Active | Not Active | Not Active | – | – | –
9 | C[C@]12CCC(=O)C=C1CC[C@@H]1[C@@H]2[C@@H](O)C[C@@]2(C)[C@H]1CC[C@]2(O)C(=O)CO [HYDROCORTISONE] | Not Active | Not Active | Not Active | Not Active | Not Active | Not Active | Not Active | – | – | –
10 | Cc1cccc(Nc2ccccc2C(=O)O)c1C [MEFENAMIC ACID] | Not Active | Not Active | Not Active | Not Active | Not Active | Not Active | Not Active | – | – | –
11 | CCn1cc(C(=O)O)c(=O)c2cc(F)c(N3CCNCC3)nc21 [ENOXACIN] | Not Active | Not Active | Not Active | Not Active | Not Active | Not Active | Not Active | – | – | –
12 | Cc1c(N(C)CS(=O)(=O)[O-])c(=O)n(-c2ccccc2)n1C.[Na+] [DIPYRONE SODIUM] | Not Active | Not Active | Not Active | Not Active | Not Active | Not Active | Not Active | – | – | –
13 | C#C[C@]1(O)CC[C@H]2[C@@H]3CCC4=Cc5oncc5C[C@]4(C)[C@H]3CC[C@@]21C [DANAZOL] | Not Active | – | – | Not Active | – | Not Active | Not Active | – | 19.6 µM | 12.6 µM
14 | CC(=O)O[C@]1(C(C)=O)CC[C@H]2[C@@H]3C=C(C)C4=CC(=O)CC[C@]4(C)[C@H]3CC[C@@]21C [MEGESTROL ACETATE] | Not Active | Not Active | Not Active | Not Active | Not Active | Not Active | Not Active | – | – | –
15 | CCOC(=O)n1ccn(C)c1=S [CARBIMAZOLE] | Not Active | Not Active | Not Active | Not Active | Not Active | Not Active | Not Active | – | – | –
16 | CN1C(=O)CN=C(c2ccccc2)c2cc(Cl)ccc21 [DIAZEPAM] | Not Active | Not Active | Not Active | Not Active | Not Active | Not Active | Not Active | – | – | –

Row | SMILES | IC50 [1] | IC50 [2] | Ki [2] | IC50 [3] | IC50 [4] | IC50 [5] | IC50 [6] | IC50 ([1]; read-out: IC50) | IC50 ([2]; read-out: IC50) | Ki ([2]; read-out: Ki)
17 | NC[C@H]1O[C@H](O[C@H]2[C@H](O)[C@@H](O[C@H]3O[C@H](CO)[C@@H](O)[C@H](N)[C@H]3O)[C@H](N)C[C@@H]2N)[C@H](O)[C@@H](O)[C@@H]1O [KANAMYCIN] | Not Active | Not Active | Not Active | Not Active | Not Active | Not Active | Not Active | – | – | –
18 | COc1cc(CNC(=O)CCCC/C=C/C(C)C)ccc1O [CAPSAICIN] | Not Active | Not Active | Not Active | Not Active | Not Active | Not Active | Not Active | – | – | –
19 | C[C@H](C(=O)O)c1cccc(C(=O)c2ccccc2)c1 [DEXKETOPROFEN] | Not Active | Not Active | Not Active | Not Active | Not Active | Not Active | Not Active | – | – | –
20 | NC[C@@H]1O[C@H](O[C@H]2[C@@H](O)[C@H](O[C@@H]3[C@@H](O)[C@H](N)C[C@H](N)[C@H]3O[C@H]3O[C@H](CN)[C@@H](O)[C@H](O)[C@H]3N)O[C@@H]2CO)[C@H](N)[C@@H](O)[C@@H]1O [FRAMYCETIN] | Not Active | Not Active | Not Active | Not Active | Not Active | Not Active | Not Active | – | – | –
21 | C[C@]12C/C(=C/O)C(=O)C[C@@H]1CC[C@@H]1[C@@H]2CC[C@@]2(C)[C@H]1CC[C@]2(C)O [OXYMETHOLONE] | Not Active | Not Active | Not Active | Not Active | Not Active | Not Active | Not Active | – | – | –
22 | C[C@@H]1CC[C@H]2[C@@H](C)C(=O)O[C@@H]3O[C@@]4(C)CC[C@@H]1[C@]32OO4 [ARTEMISININ] | Not Active | Not Active | Not Active | Not Active | Not Active | Not Active | Not Active | – | – | –
23 | CCOC(=O)[C@H](CCc1ccccc1)N[C@@H](C)C(=O)N1Cc2ccccc2C[C@H]1C(=O)O | Not Active | Not Active | Not Active | Not Active | Not Active | Not Active | Not Active | – | – | –
24 | C=C1/C(=C\C=C2/CCC[C@]3(C)[C@@H]([C@H](C)CCCC(C)C)CC[C@@H]23)C[C@@H](O)C[C@@H]1O [ALFACALCIDOL] | Not Active | Not Active | Not Active | Not Active | Not Active | Not Active | Not Active | – | – | –
25 | CCCCC1C(=O)N(c2ccccc2)N(c2ccccc2)C1=O [PHENYLBUTAZONE] | Not Active | Not Active | Not Active | Not Active | Not Active | Not Active | Not Active | – | – | –
26 | Cc1cn[nH]c1 [FOMEPIZOLE] | Not Active | Not Active | Not Active | Not Active | Not Active | Not Active | Not Active | – | – | –
27 | COc1ccccc1OCC(O)CO (stereo not given) [GUAIFENESIN] | Not Active | Not Active | Not Active | Not Active | Not Active | Not Active | Not Active | – | – | –
28 | [N-]=[N+]=CC(=O)OC[C@H](N)C(=O)O [AZASERINE] | Not Active | Not Active | Not Active | Not Active | Not Active | Not Active | Not Active | – | – | –
29 | N[C@@H](Cc1ccc(F)cc1)C(=O)O | Not Active | Not Active | Not Active | Not Active | Not Active | Not Active | Not Active | – | – | –
30 | O=C(/C=C/c1ccc(O)c(O)c1)OCCc1ccccc1 [CAFFEIC ACID PHENETHYL ESTER] | – | Not Active | Not Active | Not Active | Not Active | Not Active | Not Active | 1.41 µM | – | –
31 | CC(C)(C)c1ccc(S(=O)(=O)/C=C/C#N)cc1 [BAY-11-7085] | Not Active | Not Active | Not Active | Not Active | – | Not Active | Not Active | – | – | –
